From PubChem BioAssay (NCI)
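48-hour exposure; five concentrations; linearly interpolated endpoints. At the TGI there is no net growth.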

Assays:
Assay in all cases: DTP human tumour cell line panel, 48 h
[1] = tested on: A498 renal
[2] = tested on: CCRF-CEM leukemia
[3] = tested on: COLO 205 colon
[4] = tested on: HT29 colon
[5] = tested on: IGROV1 ovarian
[6] = tested on: KM12 colon
[7] = tested on: M14 melanoma
[8] = tested on: NCI-H460 lung
[9] = tested on: NCI/ADR-RES ovarian
[10] = tested on: OVCAR-8 ovarian
[11] = tested on: RXF 393 renal
[12] = tested on: SK-MEL-28 melanoma
[13] = tested on: SK-OV-3 ovarian
[14] = tested on: SNB-19 CNS
[15] = tested on: SW-620 colon
[16] = tested on: T-47D breast
[17] = tested on: U251 CNS
[18] = tested on: MCF7 breast
[19] = tested on: SF-539 CNS

| Structure (SMILES) | TGI [1] [µM] | TGI [2] [µM] | TGI [3] [µM] | TGI [4] [µM] | TGI [5] [µM] | TGI [6] [µM] | TGI [7] [µM] | TGI [8] [µM] | TGI [9] [µM] | TGI [10] [µM] | TGI [11] [µM] | TGI [12] [µM] | TGI [13] [µM] | TGI [14] [µM] | TGI [15] [µM] | TGI [16] [µM] | TGI [17] [µM] | TGI [18] [µM] | TGI [19] [µM] |
| --- | --- | --- | --- | --- | --- | --- | --- | --- | --- | --- | --- | --- | --- | --- | --- | --- | --- | --- | --- |
| CC1(C)OC(=O)N(c2ccccc2)C12C=Cc1cc([N+](=O)[O-])ccc1O2 (centres undefined) | > 100 | 99 | > 100 | > 100 | > 100 | > 100 | > 100 | > 100 | > 100 | > 100 | > 100 | > 100 | 66.4 | > 100 | > 100 | 86.9 | > 100 | – | – |
| C(/C=C/Nc1ccc(Oc2ccccc2)cc1)=Nc1ccc(Oc2ccccc2)cc1 | 29.7 | 37 | 43.6 | 29.7 | 33 | 30.3 | – | 30.6 | 33.5 | 38.8 | 39.6 | 30.3 | – | 31.3 | 34.6 | – | 33.2 | 31.1 | 32.9 |
| CCN(CC)CCSc1c2cc(OC)ccc2nc2ccc(OC)cc12 | 51.5 | > 22.6 | 4.14 | – | 4.11 | > 71 | > 32.3 | > 61 | > 25.9 | 35.3 | – | 32.7 | > 54.4 | > 65.7 | > 100 | – | > 53.1 | > 100 | > 100 |
| CCOc1ncn(-c2ccc(NC(=S)NC3OC(CO)C(O)C(O)C3O)cc2)n1 (centres undefined) | – | > 100 | > 100 | > 100 | > 100 | > 100 | > 100 | > 100 | – | > 100 | – | > 100 | > 100 | > 100 | > 100 | > 100 | > 100 | > 100 | > 100 |
| c1ccc(CNc2nncc3[nH]cnc23)cc1 | > 100 | > 100 | > 100 | > 100 | > 100 | > 100 | > 100 | – | > 100 | > 100 | – | > 100 | > 100 | – | > 100 | > 100 | > 100 | > 100 | > 100 |
| O=C1CC(c2cccc([N+](=O)[O-])c2)C2(C(=O)NC(=O)NC2=O)C(c2cccc([N+](=O)[O-])c2)C1 (centres undefined) | > 100 | > 100 | > 100 | > 100 | > 100 | > 100 | > 100 | > 100 | > 100 | > 100 | 61.1 | > 100 | > 100 | > 100 | > 100 | – | > 100 | 44 | > 100 |
| O=[N+]([O-])c1ccc(S(=O)(=O)n2c3ccc(Br)cc3c3nc4ccccc4nc32)cc1 | > 100 | > 100 | > 100 | > 100 | > 100 | > 100 | > 100 | > 100 | > 100 | > 100 | > 100 | > 100 | – | > 100 | > 100 | > 100 | > 100 | – | – |
| C[C@@H](c1ccccc1)n1c(N)c(C#N)c2ccc([N+](=O)[O-])cc2c1=O | 24.4 | 33 | 30.8 | 28.1 | – | 42.8 | – | 36 | 22.5 | 30.6 | – | 39.5 | – | 29.1 | 48.3 | 51.1 | 59.1 | – | – |
| CC(=O)Oc1ccc2cc(-c3ccccc3OC(C)=O)c(=O)oc2c1 | > 100 | 60.6 | > 100 | > 100 | – | > 100 | > 100 | > 100 | > 100 | > 100 | – | > 100 | – | > 100 | > 100 | 56.7 | > 100 | > 100 | > 100 |
| CCCc1c(O)nc(Nc2nc3ccccc3[nH]2)[nH]c1=O | > 100 | > 100 | > 100 | > 100 | > 100 | > 100 | > 100 | > 100 | > 100 | > 100 | > 100 | – | > 100 | > 100 | > 100 | > 100 | > 100 | – | > 100 |
| O=c1c2ccccc2nc(Cc2nc(-c3ccc(Cl)cc3)cs2)n1-c1ccc(Cl)cc1 | > 100 | > 100 | > 100 | > 100 | > 100 | > 100 | > 100 | > 100 | > 100 | > 100 | > 100 | > 100 | > 100 | > 100 | > 100 | – | > 100 | > 100 | – |
| COc1cc(-c2nc3ccccn3c2/N=C/c2cc(Br)cc(Br)c2O)ccc1O | – | 45.6 | 74.3 | 57.1 | 49.9 | 67.2 | 38.5 | > 100 | 64.5 | 61.8 | > 100 | 40.7 | 59 | 75.6 | 71.2 | 74.3 | 31.9 | 53.8 | 90.2 |
| O=C(NC(Cc1ccccc1)(Cc1ccc(O)cn1)C(=O)O)c1ccccc1 (centres undefined) | – | > 100 | > 100 | > 100 | > 100 | > 100 | > 100 | > 100 | > 100 | > 100 | > 100 | > 100 | > 100 | > 100 | > 100 | – | > 100 | – | > 100 |
| COc1cc(OC)c2c(C)cc(=O)oc2c1 | 76.5 | > 100 | > 100 | > 100 | > 100 | > 100 | > 100 | – | > 100 | > 100 | – | > 100 | > 100 | > 100 | > 100 | – | > 100 | > 100 | > 100 |
| O=C1NC2O[C@H](CNC(=O)c3cc(Br)c[nH]3)CC2(O)N1 (mixture of isomers) | > 100 | – | > 100 | > 100 | > 100 | > 100 | > 100 | > 100 | > 100 | > 100 | – | > 100 | > 100 | > 100 | > 100 | > 100 | > 100 | > 100 | > 100 |
| Cn1c([C@H](C#N)c2ncccc2[N+](=O)[O-])nc2ccccc21 | > 100 | > 100 | – | > 100 | – | > 100 | > 100 | > 100 | > 100 | > 100 | 97.7 | > 100 | > 100 | > 100 | > 100 | – | > 100 | > 100 | 95.4 |
| Nc1ccc(Cc2c(N)[nH]c(=O)[nH]c2=O)cc1 | > 100 | > 100 | > 100 | > 100 | – | – | > 100 | > 100 | > 100 | > 100 | – | > 100 | > 100 | > 100 | > 100 | > 100 | > 100 | > 100 | > 100 |
| CCOC(=O)Cc1nc2cc(F)c(F)cc2[nH]c1=O | – | > 100 | > 100 | > 100 | – | > 100 | > 100 | > 100 | > 100 | > 100 | > 100 | > 100 | > 100 | > 100 | > 100 | – | > 100 | > 100 | > 100 |
| N#CCCC(CCC#N)(CCC#N)NO | – | – | > 100 | > 100 | > 100 | > 100 | > 100 | > 100 | > 100 | > 100 | > 100 | – | > 100 | > 100 | > 100 | > 100 | > 100 | > 100 | > 100 |
| N#Cc1[nH]c(=O)n(-c2ccccc2)c1N | > 10 | > 10 | > 10 | > 10 | > 10 | > 10 | > 10 | > 10 | > 10 | > 10 | > 10 | > 10 | > 10 | > 10 | > 10 | > 10 | > 10 | – | > 10 |
| COc1cc(Br)cc2cc(-c3cn4c(n3)sc3ccccc34)c(=O)oc12 | 51 | > 75 | > 75 | > 75 | 34.9 | > 75 | > 75 | > 75 | > 75 | > 75 | – | – | > 75 | > 75 | > 75 | – | 72.1 | > 75 | > 75 |
| CC1(C)C[C@@H]2C1CCC1(C)CC2(O)CC[C@H]1O (some centres undefined) | – | > 100 | > 100 | > 100 | > 100 | > 100 | > 100 | > 100 | > 100 | > 100 | – | > 100 | > 100 | > 100 | > 100 | > 100 | > 100 | > 100 | – |
